Emission maximum data for 39 compounds are collected here from the Deep4Chem optical property database.

The data set in a line: solvent given as SMILES.

Take `O=c1c2cc(-n3c4ccccc4c4ccccc43)ccc2sc2ccc(-n3c4ccccc4c4ccccc43)cc12`: the emission maximum was 460 nm (in C1CCOC1); 438 nm (in CCCCCC); 455.5 nm (in Cc1ccccc1); 493.5 nm (in ClC(Cl)Cl); 495 nm (in ClCCl).
On to `N#Cc1c(C#N)c2cc(F)ccc2c2ccc(F)cc12`, for which, where the note is “in ClC(Cl)Cl”, the emission maximum stood at 374 nm.
On to `COc1ccc(-c2cc3c(s2)=CC2=C(C(F)(F)F)c4cc5sc(-c6ccc(OC)cc6)cc5n4[B-](F)(F)[N+]=32)cc1`, for which the emission maximum runs as follows: (in C1CCOC1) 754 nm; (in ClC(Cl)Cl) 754 nm.
The compound `C(=C\c1c[nH]c2ccc(Oc3ccccc3)cc12)/C1=[NH+]c2cccc3cccc1c23` had an emission maximum (in CO) of 584 nm.
For `CCCCCCOc1ccc(/C=C/c2ccc(N(c3ccc(/C=C/c4ccc(OCCCCCC)cc4)cc3)c3ccc(-c4nc5ccccc5nc4-c4ccc(N(c5ccc(/C=C/c6ccc(OCCCCCC)cc6)cc5)c5ccc(/C=C/c6ccc(OCCCCCC)cc6)cc5)cc4)cc3)cc2)cc1`, the emission maximum by setting is: (in C1CCOC1) 518 nm; (in Cc1ccccc1) 505 nm.
Take `CN(C)c1ccc(C(=O)Nc2ccc([N+](=O)[O-])cc2)cc1`: the emission maximum was determined as 360 nm (in C1CCCCC1), 400 nm (in C1CCOC1), 430 nm (in CC#N) and 536 nm (in CCOCC).
Under “in ClCCl”, `CC(C)(C)c1ccc(C#Cc2c(C#Cc3ccc(C(C)(C)C)cc3)c3cccc4c(C#Cc5ccc(C(C)(C)C)cc5)c(C#Cc5ccc(C(C)(C)C)cc5)c5cccc2c5c34)cc1` came in with an emission maximum of 443 nm.
As for `CC(C)(C)c1cc(-c2c3cc(c(-c4cc(C(C)(C)C)cc(C(C)(C)C)c4)c4ccc([nH]4)c(-c4ccc([N+](=O)[O-])cc4)c4nc(c(-c5ccc([N+](=O)[O-])cc5)c5ccc2[nH]5)C=C4)N=C3)cc(C(C)(C)C)c1`, the emission maximum (in ClCCl) came to 741 nm.
Still for that read-out and setting: under `CCCCCCC1(CCCCCC)c2ccccc2-c2ccc(-c3ccc(-c4cc(-c5ccccn5)nc(-c5ccccn5)c4)cc3)cc21` stands 409 nm.
For the compound `N#Cc1nn(-c2ccc(F)cc2)nc1N1CCCC1`, the emission maximum (in CC#N) was 422 nm.
`CN(C)c1ccc(C2=[N+]3C(=Nc4c(-c5ccc(O)cc5)cc(-c5ccc(N(C)C)cc5)n4[B-]3(F)F)C(c3ccc(O)cc3)=C2)cc1`: the emission maximum was 815 nm (in C1CCOC1), 832 nm (in CS(C)=O) and 813 nm (in Cc1ccccc1).
In turn, `Cc1ccc2c(c1)C1(c3ccccc3-c3ccccc31)c1cc(C)ccc1N2c1ccc(-c2ncccn2)cc1` gave an emission maximum (in Cc1ccccc1) of 461 nm and an emission maximum (in O=P(c1ccccc1)(c1ccccc1)c1ccc2oc3ccc(P(=O)(c4ccccc4)c4ccccc4)cc3c2c1) of 466 nm.
Take `COC(=O)[C@H](Cc1ccc2oc3c(c2c1)=CC1=C(c2ccc(OC)cc2)c2cc4c5cc(C[C@H](NC(=O)OC(C)(C)C)C(=O)OC)ccc5oc4n2[B-](F)(F)[N+]=31)NC(=O)OC(C)(C)C`: the emission maximum reads like this: (in C1CCCCC1) 596.5 nm; (in CCOC(C)=O) 597 nm; (in CO) 595 nm.
`COC(=O)c1ccc(-c2ccc3c(c2)C(=O)c2cc(-c4ccc(C(=O)OC)cc4)ccc2-3)cc1`: where the note is “in C1CCOC1”, the emission maximum is 366 nm.
In turn, `CC(C)(C)c1ccc2c(c1)c1cc(C(C)(C)C)ccc1n2-c1ccc(C#Cc2ccc3c4ccc(C#Cc5ccc(-n6c7ccc(C(C)(C)C)cc7c7cc(C(C)(C)C)ccc76)cc5)cc4n(-c4ccc(C(F)(F)F)cc4)c3c2)cc1` returned an emission maximum (in ClCCl) of 431 nm.
Compound `CC1(C)c2ccccc2-c2cc3c(cc21)c1ccccc1n3-c1ccc2ncccc2c1` registered an emission maximum (in ClCCl) of 446 nm.
Where the note is “in C1CCOC1”, `CC(C)(C)c1ccc(-c2c(-c3ccc(N(c4ccccc4)c4ccccc4)cc3)c(C#N)c(-c3ccc(N(c4ccccc4)c4ccccc4)cc3)c(-c3ccc(C(C)(C)C)cc3)c2-c2ccc(C(C)(C)C)cc2)cc1` came in with an emission maximum of 443 nm.
Consider `CCOC(=O)/N=c1/oc2c(OC)cccc2cc1C#N`, for which the emission maximum (in ClCCl) was determined as 465 nm.
As for `COc1cc2c(cc1-c1ccc(F)cc1)Cc1c3c(c4c(c1-2)-c1cc(OC)c(-c2ccc(F)cc2)cc1C4)C(=O)N(CCC(C)C)C3=O`, where the note is “in C1CCOC1”, the emission maximum is listed as 468 nm.
In turn, `COc1ccc(-c2sc3c(-c4ccc(OC)cc4)c4n(c3c2-c2ccc(OC)cc2)[B-](F)(F)[N+]2=Cc3c(-c5ccc(OC)cc5)c5sc(-c6ccc(OC)cc6)c(-c6ccc(OC)cc6)c5n3[B-](F)(F)[N+]2=C4)cc1` showed an emission maximum (in CC#N) of 641 nm; an emission maximum (in CCCCCC) of 630 nm; an emission maximum (in CN(C)C=O) of 654 nm; an emission maximum (in Cc1ccccc1) of 649 nm; an emission maximum (in ClCCl) of 648 nm.
Regarding `CN(C)c1ccc(/C=C2\CC/C(=C\c3ccc(C#N)cc3)C2=O)cc1`, the emission maximum reads like this: (in C1CCOC1) 651 nm; (in CC#N) 721 nm; (in CC(C)=O) 718 nm; (in CC(C)O) 647 nm; (in CCCCO) 648 nm; (in CCCCOC(C)=O) 631 nm. In addition, the emission maximum is recorded as 644 nm (in CCCO); 659 nm (in CCO); 641 nm (in CCOC(=O)c1ccccc1); 643 nm (in CCOC(C)=O); 580 nm (in CCOCC); 740 nm (in CN(C)C=O). Also, the emission maximum by setting is: (in CO) 693 nm; (in CS(C)=O) 731 nm; (in Cc1ccccc1) 558 nm; (in ClC(Cl)(Cl)Cl) 513 nm; (in ClC(Cl)Cl) 603 nm; (in ClCCl) 643 nm. In addition, the emission maximum is recorded as 625 nm (in Clc1ccccc1Cl); 678 nm (in O=C1CCCC1); 535 nm (in S=C=S); 569 nm (in c1ccccc1); 673 nm (in c1ccncc1).
In turn, `Cc1nc(-c2ccccc2O)n2c1CCCC2` showed an emission maximum (in ClCCl) of 452 nm.
Turning to `c1cc2ccc1-c1ccc(cc1)-c1ccc(s1)-c1ccc(cc1)-c1ccc(cc1)-c1ccc(s1)-c1ccc(cc1)-c1ccc(cc1)-c1ccc-2s1`, where the note is “in C1CCOC1”, the emission maximum is 523 nm.
Compound `CC1=[N+]2C(=C(c3ccc(N(C)C)cc3)c3ccc(C)n3[B-]2(F)F)C=C1` gave an emission maximum (in C1CCCCC1) of 518 nm; an emission maximum (in C1CCOC1) of 517 nm; an emission maximum (in CC#N) of 511 nm; an emission maximum (in CC(=O)C(C)(C)C) of 512 nm; an emission maximum (in CC(C)=O) of 515 nm; an emission maximum (in CCCCCC) of 519 nm. Also, the emission maximum is 513 nm (in CCOC(C)=O), 511 nm (in CO), 580 nm (in Cc1ccccc1) and 615 nm (in ClC(Cl)Cl).
`CN(CCO)c1ccc(/C=C/C2=CC(=C(C#N)C#N)CC(C)(C)C2)cc1` came in with an emission maximum (in CC#N) of 651 nm; an emission maximum (in CC(C)=O) of 648 nm; an emission maximum (in CCCCO) of 649 nm; an emission maximum (in ClC(Cl)Cl) of 612 nm; an emission maximum (in ClCCl) of 634 nm; an emission maximum (in c1ccccc1) of 588 nm.
Take `O=C1c2ccccc2C2=Cc3cccc[n+]3[B-](F)(F)N12`: the emission maximum runs as follows: (in CCO) 449 nm; (in Cc1ccccc1) 459 nm; (in ClCCl) 454 nm.
The compound `Cc1cc2c(o1)c(Br)cc1c(C)cc(=O)oc12` came in with an emission maximum (in C1CCCCC1) of 408 nm; an emission maximum (in C1COCCO1) of 418 nm; an emission maximum (in CC#N) of 435 nm; an emission maximum (in CCO) of 439 nm; an emission maximum (in OCC(F)(F)F) of 436 nm.
Where the note is “in ClC(Cl)Cl”, `N#Cc1nc(N(Cc2ccccc2Br)Cc2ccccc2Br)c(C#N)nc1N(Cc1ccccc1Br)Cc1ccccc1Br` came in with an emission maximum of 565 nm.
As for `COc1ccc(-n2nc(C(=O)N3CCCC3)c(N3CCCC3)n2)cc1`, the emission maximum reads like this: (in CC#N) 412 nm; (in CCCCCC) 405 nm; (in CCO) 410 nm; (in CN(C)C=O) 396 nm; (in ClC(Cl)Cl) 411 nm.
Where the note is “in CS(C)=O”, `O=C(O)COc1cccc(-c2c3nc(cc4ccc([nH]4)c(-c4cccc(OCC(=O)O)c4)c4nc(cc5ccc2[nH]5)C=C4)C=C3)c1` gave an emission maximum of 633 nm.
Turning to `COc1ccc(-c2c3cc4ccccc4cc3c(C#Cc3ccccc3)c3cc4cc(C)sc4cc23)cc1`, the emission maximum (in ClCCl) is 620 nm.
In the case of `CCCCN1/C(=C/C=C/C2=[N+](C)c3ccccc3C2(C)C)C(C)(C)c2cc(OC)ccc21`, under “in CS(C)=O”, the emission maximum was 585 nm.
`C=C(C)C(CN1C(=O)c2cccc3c2c(cc2nc(C)oc23)C1=O)OO` (stereo not drawn) gave an emission maximum (in CCO) of 412 nm.
Regarding `CC(=O)[B-]1(C(C)=O)OC(c2ccccc2)=CC(c2ccccc2)=[O+]1`, the emission maximum runs as follows: (in CC#N) 400 nm; (in ClC(Cl)(Cl)Cl) 402 nm.
For the compound `CC(C)(C)c1ccc2c(c1)c1cc(C(C)(C)C)ccc1n2-c1ccc(S(=O)(=O)c2ccc(-n3c4ccc(C(C)(C)C)cc4c4cc(C(C)(C)C)ccc43)nc2)cn1`, the emission maximum is recorded as 444.37 nm (in Cc1ccccc1) and 467 nm (in O=P(c1ccccc1)(c1ccccc1)c1ccc2sc3cccc(P(=O)(c4ccccc4)c4ccccc4)c3c2c1).
As to `CCCCC(CC)CN1C(=O)C2=C(c3ccc(-c4ccc(C5=C6C(C)=CC(C)=[N+]6[B-](F)(F)n6c(C)cc(C)c65)cc4)s3)N(CC(CC)CCCC)C(=O)C2=C1c1cccs1` (stereo not drawn), under “in Cc1ccccc1”, the emission maximum amounted to 623 nm.
Consider `O=C([O-])c1cc(N2C(=O)C=CC2=O)ccc1-c1c2cc(F)c(=O)cc-2oc2cc([O-])c(F)cc12`, for which the emission maximum (in O) worked out at 520 nm.
For `CCC1=C(C)C(=O)n2c1cc1c(C)c(CC(=O)OC)c(C)n1c2=O`, the emission maximum stood at 525 nm (in CO), 500 nm (in CS(C)=O), 490 nm (in ClC(Cl)Cl) and 465 nm (in c1ccccc1).
`C1=Cc2ccc(N(c3ccccc3)c3ccccc3)cc2C2(c3cc(N(c4ccccc4)c4ccccc4)ccc31)c1ccccc1-c1ccccc12` returned an emission maximum (in ClCCl) of 461 nm.
